Reference: ChEMBL document CHEMBL6120963, “Discovery of Novel PROTAC SIRT6 Degraders with Potent Efficacy against Hepatocellular Carcinoma” (J Med Chem, 2024)
Active and inactive are the calls of the source. No cut-off for these calls is given here.

What was measured:
[1] = Toxicity in BALB/c nude mouse xenografted with human SK-HEP1 cells assessed as pathological damage in spleen at 10 mg/kg treated for 28 to 30 days under irradiation (3 Gy) by H and E staining based analysis; assay type: organism-based; details: in vivo, time 28-30 day
[2] = system: SK-HEP1; assay: Effect of SIRT2 mRNA expression in human SK-HEP1 cells at 2.5 uM incubated for 36 hrs by RT-qPCR analysis; assay type: functional, cell-based
[3] = Toxicity in BALB/c nude mouse xenografted with human SK-HEP1 cells assessed as histopathological abnormalities in heart at 10 mg/kg treated for 28 to 30 days by H and E staining based analysis; assay type: organism-based; details: in vivo, time 28-30 day
[4] = system: SK-HEP1; assay: Induction of apoptosis in human SK-HEP1 cells xenografted in BALB/c nude mouse assessed as increase in cleaved caspase-3 level at 10 mg/kg treated for 28 to 30 days under irradiation (3 Gy); assay type: functional, organism-based; details: time 28-30 day
[5] = target: T1, Protein cereblon/NAD-dependent protein deacylase sirtuin-6 (Homo sapiens, UniProt Q8N6T7+Q96SW2); assay: PROTAC activity at CRBN/SIRT6 in human SK-HEP1 cells assessed as impairment in gamma-H2AX foci formation by immunofluorescence based analysis; assay type: cell-based
Target sequence in this assay (Q8N6T7 2-355 limits assumed): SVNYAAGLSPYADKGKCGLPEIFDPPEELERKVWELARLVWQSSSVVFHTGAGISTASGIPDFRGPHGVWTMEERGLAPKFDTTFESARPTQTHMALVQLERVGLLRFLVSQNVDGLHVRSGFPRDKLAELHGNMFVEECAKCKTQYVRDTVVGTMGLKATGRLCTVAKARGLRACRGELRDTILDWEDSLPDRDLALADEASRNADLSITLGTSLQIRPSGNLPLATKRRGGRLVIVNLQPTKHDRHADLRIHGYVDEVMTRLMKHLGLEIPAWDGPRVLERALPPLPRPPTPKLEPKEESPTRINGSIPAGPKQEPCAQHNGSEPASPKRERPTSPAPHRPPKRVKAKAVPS
Target sequence in this assay (Q96SW2 whole entry partner): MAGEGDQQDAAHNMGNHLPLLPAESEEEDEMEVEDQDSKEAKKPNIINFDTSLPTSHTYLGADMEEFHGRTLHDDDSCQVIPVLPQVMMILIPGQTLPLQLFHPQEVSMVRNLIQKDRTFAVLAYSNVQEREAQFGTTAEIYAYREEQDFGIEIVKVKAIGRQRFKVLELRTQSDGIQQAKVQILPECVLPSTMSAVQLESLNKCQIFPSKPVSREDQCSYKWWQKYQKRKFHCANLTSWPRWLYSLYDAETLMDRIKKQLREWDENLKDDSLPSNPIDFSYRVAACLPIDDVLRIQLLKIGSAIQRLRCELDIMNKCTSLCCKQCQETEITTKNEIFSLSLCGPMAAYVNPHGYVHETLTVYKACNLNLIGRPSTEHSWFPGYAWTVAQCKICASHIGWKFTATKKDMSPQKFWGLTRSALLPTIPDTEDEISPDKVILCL

[6] = system: SK-HEP1; assay: Induction of apoptosis in human SK-HEP1 cells at 2.5 uM incubated for 72 hrs in presence of CPT by Annexin V-FITC/PI staining based flow cytometry; assay type: functional, cell-based
[7] = system: SK-HEP1; assay: Effect of POSTN mRNA expression in human SK-HEP1 cells at 2.5 uM incubated for 36 hrs by RNA sequencing analysis; assay type: functional, cell-based
[8] = Toxicity in BALB/c nude mouse xenografted with human SK-HEP1 cells assessed as pathological damage in heart at 10 mg/kg treated for 28 to 30 days in presence of sorafenib by H and E staining based analysis; assay type: organism-based; details: in vivo, time 28-30 day
[9] = Toxicity in BALB/c nude mouse xenografted with human SK-HEP1 cells assessed as histopathological abnormalities in spleen at 10 mg/kg treated for 28 to 30 days in presence of sorafenib by H and E staining based analysis; assay type: organism-based; details: in vivo, time 28-30 day
[10] = Toxicity in BALB/c nude mouse xenografted with human SK-HEP1 cells assessed as histopathological abnormalities in spleen at 10 mg/kg treated for 28 to 30 days under irradiation (3 Gy) by H and E staining based analysis; assay type: organism-based; details: in vivo, time 28-30 day
[11] = target: T1, Protein cereblon/NAD-dependent protein deacylase sirtuin-6; assay: PROTAC activity at CRBN/SIRT6 in pomalidomide-treated human SK-HEP1 cells assessed as induction of SIRT6 degradation at 2.5 uM treated for 36 hrs by Western blot analysis; assay type: cell-based
Target sequence in this assay (Q8N6T7 2-355 limits assumed): as the sequence (Q8N6T7 2-355 limits assumed) above
Target sequence in this assay (Q96SW2 whole entry partner): as the sequence (Q96SW2 whole entry partner) above

[12] = Toxicity in BALB/c nude mouse xenografted with human SK-HEP1 cells assessed as histopathological abnormalities in heart at 10 mg/kg treated for 28 to 30 days under irradiation (3 Gy) by H and E staining based analysis; assay type: organism-based; details: in vivo, time 28-30 day
[13] = Toxicity in BALB/c nude mouse xenografted with human SK-HEP1 cells assessed as pathological damage in kidney at 10 mg/kg treated for 28 to 30 days under irradiation (3 Gy) by H and E staining based analysis; assay type: organism-based; details: in vivo, time 28-30 day
[14] = system: SK-HEP1; assay: Downregulation of FBXO44 expression in human SK-HEP1 cells at 2.5 uM incubated for 36 hrs; assay type: functional, cell-based
[15] = system: SK-HEP1; assay: Effect of genes related to protein heterodimerization in human SK-HEP1 cells at 2.5 uM incubated for 36 hrs by GSEA analysis; assay type: functional, cell-based
[16] = system: SK-HEP1; assay: Cytotoxicity against human SK-HEP1 cells harboring SIRT6 siRNA incubated for 72 hrs by CCK8 assay; assay type: functional, cell-based
[17] = target: T1, Protein cereblon/NAD-dependent protein deacylase sirtuin-6; assay: PROTAC activity at CRBN/SIRT6 in human SK-HEP1 cells assessed as induction of SIRT6 degradation at 2 uM incubated for 36 hrs by In-Cell ELISA relative to control; assay type: cell-based
Target sequence in this assay (Q8N6T7 2-355 limits assumed): as the sequence (Q8N6T7 2-355 limits assumed) above
Target sequence in this assay (Q96SW2 whole entry partner): as the sequence (Q96SW2 whole entry partner) above

[18] = target: T1, Protein cereblon/NAD-dependent protein deacylase sirtuin-6; assay: PROTAC activity at CRBN/SIRT6 in human Huh-7 cells assessed as induction of SIRT6 degradation incubated for 36 hrs by Western blot analysis; assay type: cell-based
[19] = system: SK-HEP1; assay: Induction of apoptosis in human SK-HEP1 cells at 2.5 uM preincubated for 36 hrs followed by irradiation (3 Gy) by Annexin V-FITC/PI staining based flow cytometry; assay type: functional, cell-based
[20] = system: SK-HEP1; assay: Cytotoxicity against human SK-HEP1 cells incubated for 72 hrs by CCK8 assay; assay type: functional, cell-based; details: SK-HEP1, 72 h
[21] = target: T1, Protein cereblon/NAD-dependent protein deacylase sirtuin-6; assay: In vivo PROTAC activity of CRBN/SIRT6 in human SK-HEP1 cells xenografted in BALB/c nude mouse assessed as induction of SIRT6 degradation at 10 mg/kg treated for 28 to 30 days; assay type: functional, organism-based; details: time 28-30 day
Target sequence in this assay (Q8N6T7 2-355 limits assumed): as the sequence (Q8N6T7 2-355 limits assumed) above
Target sequence in this assay (Q96SW2 whole entry partner): as the sequence (Q96SW2 whole entry partner) above

[22] = system: SK-HEP1; assay: Inhibition of colony formation in human SK-HEP1 cells at 5 uM incubated for 10 to 14 days with replacement of medium containing compounds on every 3 days combined with irradiation (3 Gy) by crystal violet staining based analysis; assay type: functional, cell-based; details: time 10-14 day
[23] = Toxicity in BALB/c nude mouse xenografted with human SK-HEP1 cells assessed as pathological damage in lungs at 10 mg/kg treated for 28 to 30 days in presence of sorafenib by H and E staining based analysis; assay type: organism-based; details: in vivo, time 28-30 day
[24] = target: T1, Protein cereblon/NAD-dependent protein deacylase sirtuin-6; assay: PROTAC activity at CRBN/SIRT6 in human SK-HEP1 cells assessed as reduction in density of SIRT6 foci incubated for about 36 hrs by immunofluorescence based analysis; assay type: cell-based; details: dose <= 5.0 µM
Target sequence in this assay (Q8N6T7 2-355 limits assumed): as the sequence (Q8N6T7 2-355 limits assumed) above
Target sequence in this assay (Q96SW2 whole entry partner): as the sequence (Q96SW2 whole entry partner) above

[25] = system: SK-HEP1; assay: Effect of genes related to cell apoptosis in human SK-HEP1 cells at 2.5 uM incubated for 36 hrs by GSEA analysis; assay type: functional, cell-based
[26] = target: T1, Protein cereblon/NAD-dependent protein deacylase sirtuin-6; assay: PROTAC activity at CRBN/SIRT6 in human SK-HEP1 cells assessed as induction of SIRT6 degradation upto 10 uM incubated for 36 hrs by Western blot analysis relative to control; assay type: cell-based
Target sequence in this assay (Q8N6T7 2-355 limits assumed): as the sequence (Q8N6T7 2-355 limits assumed) above
Target sequence in this assay (Q96SW2 whole entry partner): as the sequence (Q96SW2 whole entry partner) above

[27] = target: T1, Protein cereblon/NAD-dependent protein deacylase sirtuin-6; assay: PROTAC activity at CRBN/SIRT6 in human Huh-7 cells assessed as induction of SIRT6 degradation upto 10 uM incubated for 36 hrs by Western blot analysis relative to control; assay type: cell-based
[28] = system: SK-HEP1; assay: Antitumor activity against human SK-HEP1 cells xenografted in BALB/c nude mouse assessed as tumor growth suppression at 10 mg/kg treated for 28 to 30 days; assay type: functional, organism-based; details: time 28-30 day
[29] = target: T1, Protein cereblon/NAD-dependent protein deacylase sirtuin-6; assay: PROTAC activity at CRBN/SIRT6 in human SK-HEP1 cells assessed as induction of SIRT6 degradation at 1 uM pretreated for 36 hrs followed by compound washout measured for 36 hrs by Western blot analysis; assay type: cell-based
[30] = system: SK-HEP1; assay: Downregulation of ALDOB expression in human SK-HEP1 cells at 2.5 uM incubated for 36 hrs; assay type: functional, cell-based
[31] = system: SK-HEP1; assay: Effect of genes related to DNA replication in human SK-HEP1 cells at 2.5 uM incubated for 36 hrs by GSEA analysis; assay type: functional, cell-based
[32] = system: SK-HEP1; assay: Inhibition of colony formation in human SK-HEP1 cells at 2.5 uM incubated for 10 to 14 days with replacement of medium containing compounds on every 3 days in presence of sorafenib by crystal violet staining based analysis; assay type: functional, cell-based; details: time 10-14 day
[33] = system: SK-HEP1; assay: Induction of DNA damage in human SK-HEP1 cells xenografted in BALB/c nude mouse assessed as increase in gamma-H2AX level at 10 mg/kg treated for 28 to 30 days under irradiation (3 Gy); assay type: functional, organism-based; details: time 28-30 day

Structure (SMILES): Nc1cc(N2CCN(CC3CCN(c4cc5c(cc4F)C(=O)N(C4CCC(=O)NC4=O)C5=O)CC3)CC2)ccc1[N+](=O)[O-] (centres undefined)
- Activity [1]: Non-toxic
- Activity [2]: No effect
- Activity [3]: Non-toxic
- Activity [4]: Active
- Activity [5]: Active
- Activity [6]: Active
- Activity [7]: Active
- Activity [8]: Non-toxic
- Activity [9]: Non-toxic
- Activity [10]: Non-toxic
- Activity [11]: inactive
- Activity [12]: Non-toxic
- Activity [13]: Non-toxic
- Activity [14]: Active
- Activity [15]: Active
- Activity [16]: inactive
- Activity [17]: 92.5%
- DC50 [18]: 154 nM
- Activity ([18]; dose 0.008-5 µM): Dose-dependent-effect; But Reduced Degradation Efficiency Observed
- Activity [19]: Active; Significant Effect Was Observed Before Being Exposed To Ir
- IC50 [20]: 1510 nM
- Activity [21]: Active
- inhibition [22]: Not active; Exhibited Weaker Inhibition
- Activity [23]: Non-toxic
- Activity [24]: Dose-dependent-effect
- Activity [25]: Active
- Emax [26]: > 98%
- Emax [27]: 91.8%
- Activity [28]: Active
- Activity [29]: Not active; Sirt6 Level Slowly Recovered Within 24 Hrs After Treatment
- Activity [30]: Active
- Activity [31]: Active
- inhibition [32]: Active; Exhibited Superior To Compound Alone
- Activity [33]: Active
